Earlier results in patent US9220771B2, “Peptide for use in the treatment of breast cancer and/or bone metastases” (MERCK PATENT GMBH, priority 2010, dated 2015).

System: HER2-positive advanced BRCA
Conditions: in combination with capecitabine, 2nd line; cited from earlier work

CS(=O)(=O)CCNCc1ccc(-c2ccc3ncnc(Nc4ccc(OCc5cccc(F)c5)c(Cl)c4)c3c2)o1 [Lapatinib]
improvement of median time to progression compared to capecitabine alone: 4 months
